Legend:
[1] = DTI (dye transfer inhibition) test, white cotton in wash liquor with dissolved test dye; settings: complex 20 μmol/l wash liquor, 8.6 mmol/l H2O2, 40° C., 30 min; for DTI effect a(%) Dye 1: Direct Brown 172 10 mg/l of the 250% formulation; for DTI effect a(%) Dye 2: Reactive Blue 238 6 mg/l of the 100% formulation
Description: The catalysts were tested for DTI activity. The DTI (dye transfer inhibition) effect a is defined as the following percentage:
a=([Y(E)−Y(A)]/[Y(W)−Y(A)])*100
where Y(W), Y(A) and Y(E) are the CIE lightnesses of the white material, of the material treated without added catalyst and of the material treated with added catalyst, in that order. a=0 characterizes a product of nil utility, the inclusion of which in the wash liquor does nothing to impede dye transfer. a=100%, by contrast, defines a perfect catalyst, which completely suppresses the tainting of the white material.
The test data are determined using the following testing system: 7.5 g of white cotton are treated in 80 ml of wash liquor. This liquor contains the standard detergent ECE phosphate-free (456 IEC) EMPA, Switzerland, in a concentration of 7.5g/l, 8.6 mmol/l H2O2, and a solution of the test dye. The washing process is carried out in a pot in a LINITEST apparatus at 40° C. for 30 min. Commercially available Direct Brown 172 (dye 1) at 10 mg/l of the 250% formulation or Reactive Blue 238 (dye 2) at 6 mg/l of the 100% formulation were used as test dyes. The reflectants spectra of the samples were measured with a SPECTRAFLASH 2000 and transformed into D65/10 lightnesses by the CIE standard procedure.
The manganese complexes are synthesized either as described in Example 13 or in situ by adding the corresponding manganese(III) salt in ethanolic solution. The complexes are always used at 20 μmol/l wash liquor. It is evident from the table that the recited catalysts are very effective DTI catalysts. […]

[2] = Bleach test, tea stain on cotton fabric; settings: 100 μmol/l ligand; 8.6 mmol/l hydrogen peroxide; 40° C., 30 minutes; H2O2 only gives 18
Description: The bleach tests are carried out as follows: 7.5 g of white cotton fabric and 2.5 g of a tea stain on cotton fabric are treated in 80 ml of wash liquor. This liquor contains the standard laundry detergent ECE phosphate-free (456 IEC) EMPA, Switzerland in a concentration of 7.5 g/l, hydrogen peroxides in a concentration of 8.6 mmol/l and optionally 100 μmol/l of one of the ligands according to the invention. The washing process takes place in a steel pot in a LINITEST apparatus at 40° C. for 30 minutes. The bleaching results are evaluated using the increase in lightness DY (lightness difference as per CIE) of the stain due to the treatment.

Row | SMILES | DTI effect a(%) Dye 1 [1] | DTI effect a(%) Dye 2 [1] | DY with H2O2 and ligand (increase in lightness of the stain) [2]
1 | O=[N+]([O-])c1ccc(O)c(C=NCCN(CCN=Cc2cc([N+](=O)[O-])ccc2O)CC/N=C/c2cc([N+](=O)[O-])ccc2O)c1 [Example 6, N,N′, N″-Tris[5-nitrosalicylideneaminoethyl]amine] | 70% | 80% | 
2 | C[N+](C)(C)c1ccc(O)c(C=NCCN(CCN=Cc2cc([N+](C)(C)C)ccc2O)CC/N=C/c2cc([N+](C)(C)C)ccc2O)c1.[Br-].[Br-].[Br-] [Example 11, N,N′,N″-Tris[5-trimethylammoniosalicylideneaminoethyl]amine tribromide] | 86% | 94% | 
3 | CC(C)N(C)c1ccc(C=NCCN(CCN=Cc2ccc(N(C)C(C)C)cc2O)CC/N=C/c2ccc(N(C)C(C)C)cc2O)c(O)c1 [Example 7, N,N′,N″-Tris[(4-N-methyl-N-isopropylamino)salicylideneaminoethyl]amine] | 84% | 83% | 21
4 | CN(C)c1ccc(/C=N\CCN(CC/N=C/c2ccc(N(C)C)cc2O)CC/N=C/c2ccc(N(C)C)cc2O)c(O)c1 [Example 3, N,N′,N″-Tris[4-N-dimethylaminosalicylideneaminoethyl]amine] | 85% | 80% | 22
5 | Oc1ccccc1/C=N\CCN(CC/N=C/c1ccccc1O)CC/N=C/c1ccccc1O [Example 1, N,N′,N″-Tris[salicylideneaminoethyl]amine] | 91% | 96% | 
6 | CCN(CC)c1ccc(C=NCCN(CCN=Cc2ccc(N(CC)CC)cc2O)CC/N=C/c2ccc(N(CC)CC)cc2O)c(O)c1 [Example 2, N,N′,N″-Tris[4-N-diethylaminosalicylideneaminoethyl]amine] | 78% | 73% | 21
7 | O=S(=O)([O-])c1ccc(O)c(C=NCCN(CCN=Cc2cc(S(=O)(=O)[O-])ccc2O)CC/N=C/c2cc(S(=O)(=O)[O-])ccc2O)c1.[Na+].[Na+].[Na+] [Example 12, N,N′,N″-Tris[5-sulfonatosalicylideneaminoethyl]amine, trisodium salt] | 80% | 99% | 
8 | Oc1ccc(/C=N\CCN(CC/N=C/c2ccc(O)cc2O)CC/N=C/c2ccc(O)cc2O)c(O)c1 [Example 5, N,N′,N″-Tris[4-hydroxysalicylideneaminoethyl]amine] | 78% | 27% | 
9 | COc1ccc(/C=N\CCN(CC/N=C/c2ccc(OC)cc2O)CC/N=C/c2ccc(OC)cc2O)c(O)c1 [Example 4, N,N′,N″-Tris[4-methoxysalicylideneaminoethyl]amine] | 83% | 67% | 
10 | C[N+](C)(C)c1ccc(C=NCCN(CCN=Cc2ccc([N+](C)(C)C)cc2O)CC/N=C/c2ccc([N+](C)(C)C)cc2O)c(O)c1.[Br-].[Br-].[Br-] [Example 10, N,N′, N″-Tris[4-trimethylammoniosalicylideneaminoethyl]amine tribromide] | 90% | 96% | 
11 | Cc1ccc(C=NCCN(CCN=Cc2ccc(C)cc2O)CC/N=C/c2ccc(C)cc2O)c(O)c1 [Example 9, N,N′,N″-Tris[4-methylsalicylideneaminoethyl]amine] | 87% | 94% | 
12 | CCN(C)c1ccc(C=NCCN(CCN=Cc2ccc(N(C)CC)cc2O)CC/N=C/c2ccc(N(C)CC)cc2O)c(O)c1 [Example 8, N,N′,N″-Tris[(4-N-methyl-N-ethylamino)salicylideneaminoethyl]amine] | 85% | 81% | 22

Reference: patent publication US6800775B1, “Metal complexes of tripodal ligands” (Ciba Specialty Chemicals Corporation, priority 1999, dated 2004)
